Data set [1] relates to human coronary artery smooth muscle cells. Kind of data set: Anti-proliferative activity in non-synchronized cultured coronary artery smooth muscle cells, two percent fetal bovine serum. The data set is classed as cell-based. An excerpt: The multiple curves represent various concentrations of mycophenolic acid ranging from zero to one thousand nanomolar concentrations.
FIG. 58 illustrates, in graphical format, the anti-proliferative activity of cladribine in non-synchronized cultured human coronary artery smooth muscle cells stimulated with two percent fetal bovine serum.
The multiple curves represent various concentrations of cladribine ranging from zero to nine hundred nanomolar concentrations.

Data set [2] concerns human smooth muscle cells. Kind of data set: Cladribine Example: PDGF-stimulated proliferation of smooth muscle cells. The data set is classed as cell-based. The conditions noted are these: from IC50 values 23 and 40 nanomolar. As to the method:
To assess the ability of cladribine to prevent cell proliferation, human smooth muscle or endothelial cells (Clonetics, Walkersville, Md.) were seeded at a density of 2000 cells/cm^2 (approximately 3600 cells/well) into each well of 12-well plates and cultured with 1.5 ml of growth medium containing five percent fetal calf serum (FCS). After twenty-four hours, the growth medium was changed and fresh medium containing 10 ng/ml platelet-derived growth factor AB (PDGF AB; LIFE Technologies), as well as various concentrations of cladribine (0.001-10,000 nM) were added with triplicate wells. Medium was replaced with fresh cladribine-containing medium after three days. On day six, cells were detached by trypsinization to yield a cell suspension, lightly centrifuged to pellet and then counted manually using a Neubauer hemocytometer system. Cell viability was assessed by trypan blue exclusion.

Data set [3] can be described thus: In vitro release kinetics from stent coatings. The conditions noted are these: for in vitro release rate of cladribine, effect of topcoat: twenty-five percent ethanol/water, room temperature. The data set is classed as physicochemical.
The nature of data set [4]: Porcine pharmacokinetics studies: in vivo release kinetics from stent coatings. The conditions noted are these: for drug remained in the drug coating: after eight (8) days of implantation, porcine, single layer sirolimus + cilostazol in EVA/BMA, 100 μg BMA overcoat (FIG. 83).
Text: The topcoat is two hundred micro grams.
FIG. 61 is a graphical representation of the in vivo release kinetics of cladribine from a polymeric coating on Bx Velocity® stents, available from Cordis Corporation, implanted in a Yorkshire pig. The basecoat comprises an 85/15 ratio of PVDF and HFP and cladribine for a total combined weight of one thousand eight hundred micrograms (cladribine comprising thirty percent of the total weight). The topcoat comprises an 85/15 ratio of PVDF/HFP and no cladribine. The total weight of the topcoat is three hundred micrograms.
(§1) The basecoat is applied to Bx Velocity® stents and implanted into Yorkshire pigs.
as §1
Another critical parameter for the performance of the thrombus resistance of a device coated with cilostazol is the duration of the drug release from the coating. This is of particular significance in the two weeks after device implantation. […] The purpose of the porcine PK study is to assess the local pharmacokinetics of a drug eluting stent at a given implantation time. Normally three stents are implanted in three different coronary arteries in a pig for a given time point and then retrieved for total drug recovery analysis. The stents are retrieved at predetermined time points; namely, 1, 3 and 8 days. The stents are extracted and the total amount of drug remaining on the stents is determined by analysis utilizing HPLC (high performance liquid chromatography) for total drug amount. The difference between the original amount of drug on the stent and the amount of drug retrieved at a given time represents the amount of drug released in that period. The continuous release of drug into surrounding arterial tissue is what prevents the neointimal growth and restenosis in the coronary artery. A normal plot represents the percentage of total drug released (%, y-axis) vs. time of implantation (day, x-axis). […] Curve 8102 represents cilostazol and curve 8104 represents sirolimus. […] In this exemplary configuration, the stent 8300 is coated with two layers. The first layer 8302 comprises a combination of sirolimus, cilostazol and a copolymer matrix of EVA/BMA. The second layer or diffusion overcoat 8304 comprises only BMA. More specifically, in this embodiment, the first layer 8302 comprises a combination of sirolimus and cilastazol that is forty-five (45) percent by weight of the total weight of the first layer 8302 and an EVA/BMA copolymer matrix that is fifty-five (55) percent by weight of the total weight of the first layer 8302. The diffusion overcoat comprises one hundred (100 μg) micrograms of BMA.

The nature of data set [5]: Liquid formulations: drug concentration by liquid chromatography and visual observation. The conditions noted are these: water, ethanol less than two percent, Vitamin E TPGS. The data set is classed as physicochemical.
Description: The concentrations of each constituent were determined by liquid chromatography and are presented as weight by volume figures.
The liquid formulation was created utilizing the following process. Two hundred milligrams of sirolimus and two grams of ethanol were added to a pre-weighed twenty milliliter scintillation vial. The vial was vortexed and sonicated until the sirolimus was completely dissolved. Approximately six hundred milligrams of Vitamin E TPGS was then added to the solution of ethanol and sirolimus. The vial was vortexed again until a clear yellowish solution was obtained. Nitrogen gas was then used to reduce the amount of ethanol in the vial to approximately two hundred twenty-nine milligrams. In a separate vial, three hundred milligrams of Vitamin E TPGS was dissolved in eleven milliliters of purified water while undergoing vortexing. The Vitamin E TPGS and water solution was then added to the first vial containing the sirolimus, Vitamin E TPGS and ethanol. The first vial was then vortexed vigorously and continuously for three minutes.
In another exemplary embodiment, a liquid formulation of CCI-779, a sirolimus analog, is prepared utilizing ethanol, Vitamin E TPGS and water. This liquid formulation was made under similar conditions as to that described above. […]
The test system of data set [6] is human coronary artery smooth muscle cells. Kind of data set: Anti-proliferative activity in synchronized cultured coronary artery smooth muscle cells, two percent fetal bovine serum. The data set is classed as cell-based. From the text:
(§2) The multiple curves represent various concentrations of topotecan ranging from zero to three hundred nanomolar concentrations.
(§3) The multiple curves represent various concentrations of etoposide ranging from zero to eight hundred nanomolar concentrations.
Referring to FIG. 66, there is illustrated, in graphical format, the anti-proliferative activity of Panzem® in synchronized cultured human coronary artery smooth muscle cells stimulated with two percent fetal bovine serum.
The multiple curves represent various concentrations of Panzem® ranging from zero to 100 micromolar concentrations.

Data set [7] concerns human coronary artery smooth muscle cell. The conditions noted are these: concentrations 6.6 nanomolar up to 30,000.00 nanomolar. An excerpt:
In vitro cytotoxicity tests or assays may be utilized to determine if drugs, agents and/or compounds are potentially toxic and the level of toxicity. Essentially, in vitro cytotoxicity assays determine acute necrotic effects by a drug causing direct cellular damage. The idea behind these assays is that toxic chemicals affect basic functions of cells which are common to all cells. […] There are a number of different assays that may be utilized. In the present invention, the cytotoxicity assay utilized is based upon the measurement of cellular metabolic activity. A reduction in metabolic activity is an indication of cellular damage. Tests that can measure metabolic function measure cellular ATP levels or mitochondrial activity via MTS metabolism. FIG. 69 is a graphical representation of the results of an MTS assay of Panzem®.

Data set [8] has the same test system. Kind of data set: In vitro cell culture study of coronary artery smooth muscle cell proliferation (trichostatin A). The data set is classed as cell-based. An excerpt:
FIG. 51 is a graph of the inhibition of coronary artery smooth muscle cells by trichostatin A in a cell culture study.

Another data set deals with tumor cell lines. The conditions noted are these: tumor cell lines (Woo et al., 2002); cited from earlier work.
In the next data set the test system is bovine blood. Kind of data set: In vitro bovine blood loop model (In 111 labeled platelets). The conditions noted are these: sirolimus/cilostazol coated stents versus control. An excerpt:
The anti-thrombotic efficacy of the above-described three configurations is illustrated in FIG. 80. FIG. 80 illustrates the anti-thrombotic properties of the sirolimus/cilostazol combination coatings described above in an in vitro bovine blood loop model. In the in vitro bovine blood loop model, fresh bovine blood is heparinized to adjust for acute clotting time (ACT) of about two hundred (200) seconds. The platelet content in the blood is labeled through the use of Indium 111. In the study, a stent is deployed in a silicone tube, which is part of a closed loop system for blood circulation. The heparinzed blood is circulated through the closed loop system by means of a circulating pump. Blood clots and thrombus builds up on a stent surface over time and reduces the flow rate of blood through the stented loop. […] The control drug eluting stent is the Cypher® sirolimus eluting coronary stent available from Cordis Corporation. Bar 8004 is a stent coated with heparin and is available from Cordis Corporation under the […]® on the Bx Velocity® coronary stent trademark. Bar 8006 is a stent configured as set forth with respect to the architecture illustrated in FIG. 75. Bar 8008 is a stent configured as set forth with respect to the architecture illustrated in FIG. 77. Bar 8010 is a stent configured as set forth with respect to the architecture illustrated in FIG. 79.

The test system of another data set is cell viability. Kind of data set: Cell viability assay. In kind it is cell-based.
Text: as §2, §3

Setting [9] is: 600 μg EVA/BMA basecoat with 30% rapamycin and 30% mycophenolic acid, no, 100 or 200 μg BMA topcoat.

Here are results for nine compounds from patent US8784860B2 (Cordis Corporation, priority 2005, dated 2014).

Molecules are shown by their SMILES. Entries after “also recorded” stand apart in the source; their conditions may differ.

`Nc1nc(Cl)nc2c1ncn2[C@H]1C[C@H](O)[C@@H](CO)O1` [cladribine, 2-chlorodeoxyadenosine]: the “effect of cladribine on the anti-proliferative rapamycin dose response curves” value in data set [1] (cladribine 56.25 to 900 nanomolar added to rapamycin) is recorded as “potentiate the anti-proliferative activity of rapamycin; also recorded: increases the percent inhibition of rapamycin alone”. Also, in data set [1] (non-synchronized cells, two percent fetal bovine serum), the “inhibition of human coronary artery smooth muscle cell proliferation” value is “completely inhibits”. The “potency as inhibitor of smooth muscle cells relative to endothelial cells” value in [2] was “approximately twice”. Further, the “in vitro release rate of cladribine, effect of topcoat” value is given as “increase in topcoat weight or thickness led to a decrease in the release rate of cladribine” in data set [3] (non-sterile PVDF/HFP (85/15) coatings) and “drastic decrease of release rate of cladribine” in [3] (sterile PVDF/HFP coating). Moreover, the “in vivo elution of cladribine” value in [4] (Bx Velocity stent, Yorkshire pig, 1800 μg PVDF/HFP (85/15) basecoat with 30% cladribine, 300 μg topcoat) is “after the first day, the elution of cladribine levels off significantly”. The “in vivo elution of cladribine compared with rapamycin” value in data set [4] (EVA/BMA basecoat, 200 μg BMA topcoat, Yorkshire pigs) is given as “elutes more rapidly than rapamycin”.

Turning to `CO[C@H]1C[C@@H]2CC[C@@H](C)[C@@](O)(O2)C(=O)C(=O)N2CCCC[C@H]2C(=O)O[C@H]([C@H](C)C[C@@H]2CC[C@@H](OC(=O)C(C)(CO)CO)[C@H](OC)C2)CC(=O)[C@H](C)/C=C(\C)[C@@H](O)[C@@H](OC)C(=O)[C@H](C)C[C@H](C)/C=C/C=C/C=C/1C` [CCI-779], the “concentration of CCI-779 in the final solution (HPLC)” value in data set [5] worked out at 15000 µg/mL.

For the compound `COc1cc2c(cc1O)CC[C@@H]1[C@@H]2CC[C@]2(C)[C@@H](O)CC[C@@H]12` [Panzem®, 2-methoxyestradiol], the “effect of Panzem on the anti-proliferative activity of rapamycin” value in data set [6] (Panzem 0.813 to 100 micromolar added to rapamycin) is listed as “potentiation of rapamycin by Panzem®; also recorded: increases the percent of inhibition of rapamycin alone”. In addition, the “anti-proliferative activity (single agent)” value in data set [6] (synchronized human coronary artery smooth muscle cells, two percent fetal bovine serum) is on record as “extremely effective inhibitor of human coronary artery smooth muscle cell proliferation in vitro”. In addition, the “cytotoxicity, MTS assay” value in [7] is given as “do not reduce human coronary artery smooth muscle cell survival”.

In general, IC50 refers to the concentration that inhibits the measured activity by half. Take `CC(/C=C/C(=O)NO)=C\[C@@H](C)C(=O)c1ccc(N(C)C)cc1` [trichostatin A]: the “inhibition of human coronary artery smooth muscle cell proliferation” value in data set [8] is on record as “completely inhibit”. Also, the IC50 in data set [8] (human coronary artery smooth muscle cells, read-out: anti-proliferative IC50) was about 6 nM. Further, the “anti-proliferative IC50's” value in the data set with tumor cell lines is “low nM range”.

In the case of `O=C1CCc2cc(OCCCCc3nnnn3C3CCCCC3)ccc2N1` [cilostazol, 6[4-(1-cyclohexyl-1H-tetrazol-5-yl)-butoxy]-3,4-dihydro-2-(1H)-quinolinone], the thrombus formation entry with bovine blood is listed as “significantly reduces thrombus formation”. Moreover, the “in vitro drug release rate, 200 μg versus 100 μg BMA diffusion overcoat” value in data set [3] (layered sirolimus/cilostazol coatings of FIGS. 75 and 77) is given as “comparatively slower from the configuration comprising the thicker diffusion overcoat of BMA”. In addition, the in vitro release in [3] (single layer sirolimus + cilostazol in EVA/BMA, 100 μg BMA overcoat (FIG. 83)) is given as about 35%. Also, the “drug remained in the drug coating” value in [4] is about 80%.

Take `CC[C@@]1(O)C(=O)OCc2c1cc1n(c2=O)Cc2cc3c(CN(C)C)c(O)ccc3nc2-1` [topotecan]: the “effect of topotecan on the anti-proliferative rapamycin dose response curves” value in data set [6] (topotecan 18.8 to 300 nanomolar added to rapamycin) is listed as “potentiate the anti-proliferative activity of rapamycin; also recorded: increases the percent inhibition of rapamycin alone”. Further, the “cytotoxicity in cell viability assay” value with cell viability (concentrations up to one micromolar) is recorded as “non-cytotoxic”.

Regarding `CO[C@H]1C[C@@H]2CC[C@@H](C)[C@@](O)(O2)C(=O)C(=O)N2CCCC[C@H]2C(=O)O[C@H]([C@H](C)C[C@@H]2CC[C@@H](O)[C@H](OC)C2)CC(=O)[C@H](C)/C=C(\C)[C@@H](O)[C@@H](OC)C(=O)[C@H](C)C[C@H](C)/C=C/C=C/C=C/1C` [rapamycin], the “in vivo release of rapamycin, effect of topcoat” value in [4] (setting [9]) is recorded as “BMA topcoat does slow the release of rapamycin”. The “in vivo release rates of rapamycin from three rapamycin/cladribine coatings” value in data set [4] (600 μg EVA/BMA basecoats with varied rapamycin/cladribine loads, 200 μg BMA topcoat, Yorkshire pigs) is listed as “substantially similar to one another”. Also, the “in vivo release rate of rapamycin compared with mycophenolic acid” value in data set [4] (600 μg PVDF basecoat, 200 μg PVDF topcoat) is reported as “slower release rate than that of mycophenolic acid”. Further, in data set [4], the “drug remained in the drug coating” value is about 80%.

With `COc1c(C)c2c(c(O)c1C/C=C(\C)CCC(=O)O)C(=O)OC2` [mycophenolic acid], the “effect of mycophenolic acid on the anti-proliferative rapamycin dose response curve” value in data set [1] (mycophenolic acid zero to one thousand nanomolar added to rapamycin) was “potentiates the anti-proliferative activity of rapamycin”. For the same compound, the “in vivo release of mycophenolic acid, effect of topcoat” value in data set [4] (setting [9]) is “BMA topcoat does slow the release of mycophenolic acid”. Besides, in data set [4] (EVA/BMA basecoat, BMA topcoat), the “in vivo elution of mycophenolic acid compared with rapamycin” value is “elutes more completely over a shorter duration than the rapamycin”.

As for `COc1cc([C@@H]2c3cc4c(cc3[C@@H](O[C@@H]3O[C@@H]5CO[C@@H](C)O[C@H]5[C@H](O)[C@H]3O)[C@H]3COC(=O)[C@H]23)OCO4)cc(OC)c1O` [etoposide], the “effect of etoposide on the anti-proliferative rapamycin dose response curves” value in data set [6] (etoposide 255.7 to eight hundred nanomolar added to rapamycin) is listed as “potentiate the anti-proliferative activity of rapamycin; also recorded: increases the percent inhibition of rapamycin alone”. Also, in the data set on cell viability (concentrations up to ten micromolar), the “cytotoxicity in cell viability assay” value was “non-cytotoxic”.
